According to patent publication US12435097B2, “Arginase inhibitors and methods of use thereof” (AstraZeneca AB, priority 2019, dated 2025):
pIC50: −log10 of the molar value. Read-outs that look alike come from different tables or passages of the source.

Tests used:
Human Arginase 1 = target: T1, Human Arginase 1 (Homo sapiens, UniProt P05089); test: Human Arginase 1 enzyme inhibition (thioarginine/DTNB absorbance at 412 nm); assay type: biochemical; settings: recombinant enzyme from E. coli, 5 nM; 30 min pre-incubation, 60 min reaction
T1 construct: made in house; host or cells: E. coli
T1 sequence (P05089 1-322): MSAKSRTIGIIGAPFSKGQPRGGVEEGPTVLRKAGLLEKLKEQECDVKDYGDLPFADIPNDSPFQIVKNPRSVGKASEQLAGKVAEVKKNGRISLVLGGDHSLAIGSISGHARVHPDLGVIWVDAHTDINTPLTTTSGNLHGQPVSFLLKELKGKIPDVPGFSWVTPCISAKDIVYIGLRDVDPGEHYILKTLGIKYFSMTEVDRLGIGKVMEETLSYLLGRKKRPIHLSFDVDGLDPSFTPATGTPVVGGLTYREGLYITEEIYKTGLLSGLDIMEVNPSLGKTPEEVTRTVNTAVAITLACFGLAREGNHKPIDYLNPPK
From the text: (§1) The inhibitory effects of Examples 1 to 12 on the activity of Human Arginase 1 and Arginase 2 activity were quantified by measuring the formation of the thiol group from thioarginine using recombinant Arginase 1 or Arginase 2 produced from E. coli. The thiol group was detected with Ellman's reagent, 5,5′-dithiobis(2-nitrobenzoic acid) (DTNB). DTNB reacts with the thiol to give the mixed disulfide and 2-nitro-5-thiobenzoic acid (TNB) which is quantified by the absorbance of the anion (TNB^2−) at 412 nm.
(§2) The assays were run in clear 384 well plates (Greiner cat no: 781101). Various concentrations of Examples 1 to 12 in 300 nL DMSO were dispensed to assay plates using an Echo acoustic dispenser immediately followed by plate sealing and centrifugation. Two pre-mixes were prepared from reagents thawed immediately before addition to assay plates. Pre-mix one comprised human Arginase 1 or human Arginase 2, at a final concentration of 5 nM and 0.5 mM DTNB in assay buffer, 45 mM HEPES pH7.5, brij 35, 0.045% (w/v) and 100 μM MnCl2. Pre-mix two comprised freshly thawed 0.5 mM thioarginine in assay buffer. Fifteen microlitres of pre-mix one was dispensed to assay plates containing Examples 1 to 12, centrifuged and incubated for 30 minutes at room temperature prior to adding fifteen microlitres of pre-mix two.
(§3) Assay plates were centrifuged prior to reading absorbance at 412 nm in a Pherastar multi-mode plate reader to collect data at time point 0 (T0). The plates were incubated at room temperature for 60 min prior to reading again to collect data at time point 1 (T1). Data is derived by subtracting the A412 signal measured at T0 (time point 0) from that measured at T1 (time point 1). The data was transformed to % effect using the equation: Compound % effect=100*[(X−min)/(max−min)], where X represents the normalized value for the compound based on the Min (vehicle) and Max (reference compound) inhibition control.
(§4) The concentration of Examples 1 to 12 that inhibited the activity by 50% (i.e. the IC50) was calculated by plotting the % effect versus test compound concentration and fitting the data using the Genedata Screener Smart fit algorithm.

Human Arginase 2 = target: T2, Human Arginase 2 (Homo sapiens, UniProt P78540); test: Human Arginase 2 enzyme inhibition (thioarginine/DTNB absorbance at 412 nm); assay type: biochemical; settings: recombinant enzyme from E. coli, 5 nM; 30 min pre-incubation, 60 min reaction
T2 construct: made in house; host or cells: E. coli
T2 sequence (P78540 23-354): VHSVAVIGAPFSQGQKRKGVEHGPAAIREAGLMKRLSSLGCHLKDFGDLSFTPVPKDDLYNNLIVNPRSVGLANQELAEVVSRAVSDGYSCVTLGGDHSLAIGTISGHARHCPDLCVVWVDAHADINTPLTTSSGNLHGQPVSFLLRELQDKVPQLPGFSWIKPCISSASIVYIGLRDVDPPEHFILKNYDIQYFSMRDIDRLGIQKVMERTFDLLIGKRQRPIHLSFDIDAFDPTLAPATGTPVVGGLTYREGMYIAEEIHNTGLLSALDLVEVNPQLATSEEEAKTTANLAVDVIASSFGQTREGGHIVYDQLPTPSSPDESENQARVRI
From the text: as §1, §2, §3, §4

[1] = Bioavailability / pharmacokinetic study in male rats (IV and PO); assay type: in vivo; settings: plasma; for clearance / Vd: male rat; for bioavailability / AUC / Cmax / Tmax: male, rat, po, 5 mg/kg; for Vd: read-out: Vdss
Experimental: Examples 2, 3, and 4 are prodrug forms of Example 1. […] Example 2 was formulated in 0.9% w/v saline pH 4 (adjusted with 1M HCl) for IV dosing. The formulation was dosed at 2 mg/kg by femoral catheter to two male rats each (170-250 g). Jugular vein catheter serial blood samples were taken at 0.033, 0.083, 0.167, 0.5, 1, 2, 4, 8, and 24 hrs post-dose. For PO dosing, Example 2 was formulated in deionized water pH 4 (adjusted with 1M HCl) and dosed at 5 mg/kg by oral gavage to two male rats each (170-250 g). Serial blood samples were taken by jugular vein catheter at 0.25, 0.5, 1, 1.5, 2, 3, 4, 8, and 24 hrs post dose. Plasma samples were generated from blood using low speed centrifugation. A single set of calibration standards containing Example 1 and Example 2 were prepared by spiking blank plasma. The samples and standards were extracted by precipitation with two volumes of acetonitrile followed by centrifugation. The results obtained were used to determine the Cl (mL/min/kg), Vdss (L/kg), Cmax (μM), AUC (μM h), tmax (h), and % F for both Example 1 and Example 2. Absolute bioavailability was determined by comparing the PO dose normalized AUC of Example 1 when dosed as Example 2, versus the dose normalized IV AUC of Example 1 when dosed as Example 1. Where appropriate, measured and not nominal doses were used to calculate bioavailability. In an analogous fashion, the same procedure was repeated for Examples 3 and 4.

[2] = IV 2 mg/kg, pro-drug measured when dosed as pro-drug
[3] = PO 5 mg/kg vs IV 2 mg/kg, pro-drug measured when dosed as pro-drug
[4] = PO 5 mg/kg, pro-drug measured when dosed as pro-drug
[5] = PO 5 mg/kg of Example 2, Example 1 measured when dosed as pro-drug
[6] = PO dosing of Example 3, Example 1 measured when dosed as pro-drug
[7] = PO dosing of Example 4, Example 1 measured when dosed as pro-drug

## N[C@H]1CCN[C@](CCCCB(O)O)(C(=O)O)C1 (single isomer, unassigned; enantiomer 1) [Example 10, Anti-4-amino-2-(4-boronobutyl)piperidine-2-carboxylic acid enantiomer 1]
Human Arginase 1
  pIC50: 4.70
Human Arginase 2
  pIC50: 4.27

## CC[C@H](N)C(=O)N[C@H]1CCN[C@@](CCCCB(O)O)(C(=O)O)C1 [Example 5, (2R,4S)-4-[[(2S)-2-aminobutanoyl]amino]-2-(4-boronobutyl)piperidine-2-carboxylic acid]
Human Arginase 1
  pIC50: 7.60
Human Arginase 2
  pIC50: 7.68

## CC[C@H](C)[C@H](N)C(=O)N[C@H]1CCN[C@@](CCCCB(O)O)(C(=O)O)C1 [Example 7, (2R,4S)-4-[[(2S,3S)-2-amino-3-methyl-pentanoyl]amino]-2-(4-boronobutyl)piperidine-2-carboxylic acid]
Human Arginase 1
  pIC50: 7.64
Human Arginase 2
  pIC50: 7.68

## CC(C)C[C@H](N)C(=O)N[C@H]1CCN[C@@](CCCCB(O)O)(C(=O)O)C1 [Example 6, (2R,4S)-4-[[(2S)-2-amino-4-methyl-pentanoyl]amino]-2-(4-boronobutyl)piperidine-2-carboxylic acid]
Human Arginase 1
  pIC50: 7.74
Human Arginase 2
  pIC50: 7.82

## N[C@H]1CCN[C@](CCCCB(O)O)(C(=O)O)C1 (single isomer, unassigned; enantiomer 2) [Example 11, anti-4-amino-2-(4-boronobutyl)piperidine-2-carboxylic acid enantiomer 2]
Human Arginase 1
  pIC50: 5.50
Human Arginase 2
  pIC50: 5.36

## CC(C)[C@@H](N)C(=O)N[C@H]1CCN[C@@](CCCCB(O)O)(C(=O)O)C1 [Example 9, (2R,4S)-4-[[(2R)-2-amino-3-methyl-butanoyl]amino]-2-(4-boronobutyl)piperidine-2-carboxylic acid]
Human Arginase 1
  pIC50: 6.63
Human Arginase 2
  pIC50: 6.74

## N[C@@H]1CCN[C@](CCCCB(O)O)(C(=O)O)C1 (single isomer, unassigned) [Example 12]
Human Arginase 1
  pIC50: 5.66
Human Arginase 2
  pIC50: 5.59

## C[C@H](N)C(=O)N[C@H]1CCN[C@@](CCCCB(O)O)(C(=O)O)C1 [Example 4, (2R,4S)-4-[[(2S)-2-aminopropanoyl]amino]-2-(4-boronobutyl)piperidine-2-carboxylic acid]
Human Arginase 1
  pIC50: 7.46
Human Arginase 2
  pIC50: 7.57
[1]; [2]
  clearance: 180 mL/min/kg

## NCC(=O)N[C@H]1CCN[C@@](CCCCB(O)O)(C(=O)O)C1 [Example 3, (2R,4S)-4-(2-aminoacetamido)-2-(4-boronobutyl)piperidine-2-carboxylic acid]
Human Arginase 1
  pIC50: 7.10
Human Arginase 2
  pIC50: 7.23
[1]; [3]
  bioavailability: 5.2%
[1]; [4]
  AUC: 1.1 µM·h
  Cmax: 640 nM
  Tmax: 0.75 h
[1]; [2]
  clearance: 13.5 mL/min/kg
  Vd: 0.22 L/kg

## N[C@H]1CCN[C@@](CCCCB(O)O)(C(=O)O)C1 [Example 1, (2R,4S)-4-amino-2-(4-boronobutyl)piperidine-2-carboxylic acid]
Human Arginase 1
  pIC50: 8.52
Human Arginase 2
  pIC50: 8.40
[1]; Example 1 after PO Example 2 vs IV AUC of Example 1 dosed as Example 1, dose normalized
  bioavailability: 82%
[1]; Example 1 after PO Example 3 vs IV AUC of Example 1 dosed as Example 1, dose normalized
  bioavailability: 78%
[1]; Example 1 after PO Example 4 vs IV AUC of Example 1 dosed as Example 1, dose normalized
  bioavailability: 20%
[1]; [5]
  AUC: 23.7 µM·h
  Cmax: 2500 nM
  Tmax: 2.3 h
[1]; [6]
  AUC: 25.7 µM·h
  Cmax: 2000 nM
  Tmax: 2.5 h
[1]; [7]
  AUC: 6.1 µM·h
  Cmax: 1000 nM
  Tmax: 1.5 h
[1]; IV, Example 1 dosed as payload
  clearance: 8.5 mL/min/kg
  Vd: 0.23 L/kg

## CC(C)[C@H](N)C(=O)N[C@H]1CCN[C@@](CCCCB(O)O)(C(=O)O)C1 [Example 2, (2R,4S)-4-((S)-2-amino-3-methylbutanamido)-2-(4-boronobutyl)piperidine-2-carboxylic acid]
Human Arginase 1
  pIC50: 7.54
Human Arginase 2
  pIC50: 7.62
[1]; [3]
  bioavailability: 2%
[1]; [4]
  AUC: 0.29 µM·h
  Cmax: 350 nM
  Tmax: 0.25 h
[1]; [2]
  clearance: 16.3 mL/min/kg
  Vd: 0.25 L/kg

## CC(C)(C)[C@H](N)C(=O)N[C@H]1CCN[C@@](CCCCB(O)O)(C(=O)O)C1 [Example 8, (2R,4S)-4-[[(2S)-2-amino-3,3-dimethyl-butanoyl]amino]-2-(4-boronobutyl)piperidine-2-carboxylic acid]
Human Arginase 1
  pIC50: 7.51
Human Arginase 2
  pIC50: 7.62
